Reference: patent US7141553B2, “A3AR agonists for the treatment of inflammatory arthritis” (Can-Fite Biopharma Ltd. Israel, priority 2002, dated 2006)

System: adjuvant induced arthritis
Assay: Adjuvant arthritis model in Lewis rats
Format: in vivo, rat

For `CNC(=O)[C@H]1O[C@@H](n2cnc3c(NCc4cccc(I)c4)nc(Cl)nc32)[C@H](O)[C@@H]1O` [Cl-IB-MECA, 2-chloro-N^6-(3-iodobenzyl)-adenosine-5′-N-methyl-uronamide], the appearance of paws (10 μg/kg a day PO, untreated rat paws extremely swollen and red) was “normal appearing paws” and the “improvement of arthritis score, 10 μg a day compared with 100 μg/kg a day” value (PO, from day 7 after disease induction, FIG. 4) was “significantly more effective”.
